{"source": "patent US12570988B2", "about": "“Aptamers that bind thiamine analogs and derivatives” (MeiraGTx Gene Regulation Limited, priority 2020, dated 2026)", "molecules": {"B1": {"name": "1D10: re-engineered aptamer, encoding sequence SEQ ID NO:8 (nucleic acid)", "DNA": "ACAGGGGTCCGGCCTTTTCATTTGGCGCCGGTGAGATTATACCCTTTGAACCTGTTTACGGATAATGCCGCCGCAGGGAGT", "modifications": "expressed or natural sequence"}, "B2": {"name": "6C4: re-engineered aptamer, encoding sequence SEQ ID NO:16 (nucleic acid)", "DNA": "ACGGGGGTCCGGCCTTTTCATTTGGCGCCGGTGAGAGCACACCCTTCGAACCTGTTTACGGATAATGCCGCCGCAGGGAGT", "modifications": "expressed or natural sequence"}, "B3": {"name": "4H2: re-engineered aptamer, encoding sequence SEQ ID NO:15 (nucleic acid)", "DNA": "ACAGGGGTCCGGCCTTTTCATTTGGCGCCGGTGAGAGCACACCCTTCGGACCTGTTTACGGATAATGCCGCCGCAGGGAGT", "modifications": "expressed or natural sequence"}, "B4": {"name": "3H4: re-engineered aptamer, encoding sequence SEQ ID NO:9 (nucleic acid)", "DNA": "ACAGGGGTCCGGCCTTTTCATTTGGCGCCGGTGAGAGCACACCCTTTGAACCTGTTCACGGATAATGCCGCTGCAGGGAGT", "modifications": "expressed or natural sequence"}, "B5": {"name": "6G12: re-engineered aptamer, encoding sequence SEQ ID NO:17 (nucleic acid)", "DNA": "ACAGGGGTCCGGCCTTTTCATTTGGCGCCGGTGAGAGCACACCCTTTGGACCTGTTTACGGATAATGCCGCCGCAGGGAGT", "modifications": "expressed or natural sequence"}, "B6": {"name": "6B4: re-engineered aptamer, encoding sequence SEQ ID NO:14 (nucleic acid)", "DNA": "ACAGGGGTCCGGCCTTTTCATTTGGCGCCGGTGAGAGCACACCCTTGTGACCTGTTTACGGATAATGCCGCCGCAGGGAGT", "modifications": "expressed or natural sequence"}}, "key": {"[1]": {"tested_on": "riboswitch TPPm (E. coli thiM TPP aptamer)", "test": "Luciferase reporter with TPPm riboswitch in HEK 293 cells", "format": "cell-based, human", "conditions": "FIG. 1", "text": "(§1) Riboswitch constructs: Aptamers were synthesized by Integrated DNA Technologies, Inc. and Golden Gate cloning strategy (New England Biolabs, NEB) was used to clone the synthesized aptamer sequences into intron-exon-intron cassette to replace the guanine aptamer in the G17 riboswitch cassette (see SEQ ID NO: 15 recited in WO 2016/126747, which is incorporated herein in its entirety) with a TPP aptamer from the Alishewanella tabrizica thiC gene (Microbiol Res. 2017 January; 195:71-80) or a TPP aptamer from the Escherichia coli thiM gene (Structure. 2006 September; 14(9):1459-68), generating riboswitch TPPz and TPPm, respectively.\n(§2) Transfection: 3.5×10^4 human embryonic kidney (HEK) 293 cells were plated in a 96-well flat bottom plate the day before transfection. Plasmid DNA (500 ng) was added to a tube or a 96-well U-bottom plate. Separately, TransIT-293 reagent (Mirus; 1.4 μL) was added to 50 μL Optimem I media (Life Technologies) and allowed to sit for 5 minutes at room temperature (RT). Then, 50 μL of this diluted transfection reagent was added to the DNA, mixed, and incubated at RT for 20 min. Finally, 7 μL of this solution was added to a well of cells in the 96-well plate. Four hours after transfection, medium containing transfection solution was replaced by medium containing either TPP, fursultiamine, prosultiamine, bisbentiamine, beclotiamine hydrochloride, or sulbutiamine as aptamer inducers.\n(§3) Firefly luciferase assay of cultured cells: Twenty-four hours after media change, plates were removed from the incubator, and equilibrated to RT for several minutes on a lab bench, then aspirated. Glo-lysis buffer (Promega, 100 μL, RT) was added, and the plates allowed to remain at RT for at least 5 minutes. Then, the well contents were mixed by 50 μL trituration, and 20 μL of each sample was mixed with 20 μL of bright-glo reagent (Promega) that had been diluted to 10% in glo-lysis buffer. 96 wells were spaced on an opaque white 384-well plate. Following a 5 min incubation at RT, luminescence was measured using a Tecan machine with 500 ms read time. The luciferase activity was expressed as mean arbitrary light units (ALU)±S.D., and fold induction was calculated as the quotient of the luciferase activity obtained from cells with TPP or analog treatment divided by the luciferase activity obtained from cells without TPP or analog treatment."}, "[2]": {"tested_on": "riboswitch TPPz (A. tabrizica thiC TPP aptamer)", "test": "Luciferase reporter with TPPz riboswitch in HEK 293 cells", "format": "cell-based, human", "conditions": "FIG. 1", "text": "as §1, §2, §3"}, "[3]": {"tested_on": "riboswitch 15D10", "test": "Luciferase reporter with 15D10 riboswitch (Luci-15D10) in HEK 293 cells", "format": "cell-based, human", "conditions": "HEK 293 cells; for effect on luciferase expression from Luci-15D10: FIG. 9A, 9C; for fold induction at 50 µM: Homo sapiens, HEK293, 24 h, read-out: Fold increase in riboswitch 15D10-regulated luciferase expression, HEK", "how_it_was_run": "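Cells transfected with riboswitch-luciferase plasmid; 4 h later medium replaced with TPP or thiamine analogs (fursultiamine, prosultiamine, bisbentiamine, beclotiamine, sulbutiamine) as inducers.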"}, "[4]": {"tested_on": "riboswitch 15D10", "test": "Luci-15D10 luciferase reporter in ARPE-19 cells", "format": "cell-based, human", "conditions": "FIG. 9E"}, "[5]": {"tested_on": "riboswitch 15D10", "test": "Luciferase reporter with 15D10 riboswitch (Luci-15D10) in AML12 cells", "format": "cell-based, mouse", "conditions": "for relative potency in inducing luciferase expression: AML 12 cells, compared with fursultiamine or within groups; for fold induction at 50 µM: Mus musculus, AML12, 24 h, read-out: Fold increase in riboswitch 15D10-regulated luciferase expression, AML"}, "[6]": {"tested_on": "riboswitch comprising aptamer 15A5", "test": "Luciferase reporter with 15A5 riboswitch in AML12 cells", "format": "cell-based, mouse", "conditions": "FIG. 6B"}, "[7]": {"tested_on": "luciferase expression in HEK 293 cells", "test": "Screen of aptamer libraries A1-A3 for gene regulation activity with fursultiamine", "format": "cell-based, human", "conditions": "50 μM fursultiamine, FIG. 4A", "method": "Three aptamer libraries A1, A2 and A3, were generated by randomizing nucleotides at 6 positions in, or adjacent to, regions J4-5, J2-4 and J3-2, respectively (see FIG. 3). Single bacterial colonies were picked and plasmids containing riboswitch constructs were screened in HEK 293 cells for improved gene regulation activity in response to 50 μM fursultiamine as compared to riboswitch 14G4. […] These riboswitches comprising re-engineered aptamer sequences also lead to significant enhancements of target gene expression in other cells types, including alpha mouse liver 12 (AML12), C2C12 (murine myoblast cell line), and adult retinal pigment epithelial cell line-19 (ARPE-19) (see FIG. 4B)."}}, "data": [{"molecule": "CC(=C(CCOC(=O)C(C)C)SSC(CCOC(=O)C(C)C)=C(C)N(C=O)Cc1cnc(C)nc1N)N(C=O)Cc1cnc(C)nc1N", "note": "(stereo in doubt) [sulbutiamine]", "values": [{"measurement": "effect on luciferase expression, riboswitch TPPm", "setting": "[1]", "value": "weak or no effects on luciferase expression"}, {"measurement": "effect on luciferase expression, riboswitch TPPz", "setting": "[2]", "value": "weak or no effects on luciferase expression"}]}, {"molecule": "C/C(=C(\\CCO)SCOC(=O)C(C)(C)C)N(C=O)Cc1cnc(C)nc1N", "note": "[Compound M10, (Z)-((2-(N-((4-Amino-2-methylpyrimidin-5-yl)methyl)formamido)-5-hydroxypent-2-en-3-yl)thio)methyl pivalate]", "values": [{"measurement": "effect on luciferase expression from Luci-15D10", "setting": "[3]", "value": "increased"}, {"measurement": "activity in increasing riboswitch 15D10-regulated luciferase expression", "setting": "[4]", "value": "equivalent potency to fursultaimine"}, {"measurement": "relative potency in inducing luciferase expression", "setting": "[5]", "value": "more potent than fursultiamine"}]}, {"molecule": "C/C(=C(\\CCO)SCOC(=O)C12CC3CC(CC(C3)C1)C2)N(C=O)Cc1cnc(C)nc1N", "note": "[Compound M19, (((Z)-2-(N-((4-Amino-2-methylpyrimidin-5-yl)methyl)formamido)-5-hydroxypent-2-en-3-yl)thio)methyl (3r,5r,7r)-adamantane-1-carboxylate]", "values": [{"measurement": "fold increase in luciferase expression", "setting": "[3]; 12.5 μM", "value": 168.7, "unit": "fold"}, {"measurement": "effect on luciferase expression from Luci-15D10", "setting": "[3]", "value": "increased"}, {"measurement": "relative potency in inducing luciferase expression", "setting": "[3]; compared with fursultiamine or within Formula V/VI groups", "value": "more potent"}, {"measurement": "fold induction at 50 µM", "setting": "[3]; Table 2", "value": 676}, {"measurement": "activity in increasing riboswitch 15D10-regulated luciferase expression", "setting": "[4]", "value": "equivalent potency to fursultaimine"}, {"measurement": "relative potency in inducing luciferase expression", "setting": "[5]", "value": "more potent than fursultiamine"}, {"measurement": "fold induction at 50 µM", "setting": "[5]; AML12 cells, Table 2", "value": 330}]}, {"molecule": "C/C(=C(\\CCO)SCOC(=O)c1ccccc1)N(C=O)Cc1cnc(C)nc1N", "note": "[Compound M21, (Z)-((2-(N-((4-Amino-2-methylpyrimidin-5-yl)methyl)formamido)-5-hydroxypent-2-en-3-yl)thio)methyl benzoate]", "values": [{"measurement": "effect on luciferase expression from Luci-15D10", "setting": "[3]", "value": "increased"}, {"measurement": "fold induction at 50 µM", "setting": "[3]; Table 2", "value": 618}, {"measurement": "activity in increasing riboswitch 15D10-regulated luciferase expression", "setting": "[4]", "value": "equivalent potency to fursultaimine"}, {"measurement": "relative potency in inducing luciferase expression", "setting": "[5]", "value": "more potent than fursultiamine"}, {"measurement": "fold induction at 50 µM", "setting": "[5]; AML12 cells, Table 2", "value": 229}]}, {"molecule": "C/C(=C(\\CCO)SC(=O)c1ccccc1Oc1cccc2ccccc12)N(C=O)Cc1cnc(C)nc1N", "note": "[Compound M157, (Z)—S-(2-(N-((4-amino-2-methylpyrimidin-5-yl)methyl)formamido)-5-hydroxypent-2-en-3-yl) 2-(naphthalen-1-yloxy)benzothioate]", "values": [{"measurement": "fold induction at 50 µM", "setting": "[3]; Table 3", "value": 118}, {"measurement": "fold induction at 50 µM", "setting": "[5]; AML12 cells, Table 3", "value": 316}]}, {"molecule": "C/C(=C(\\CCO)SC(=O)c1cc(Cl)ccc1Oc1ccccc1Cl)N(C=O)Cc1cnc(C)nc1N", "note": "[Compound M158, (Z)—S-(2-(N-((4-amino-2-methylpyrimidin-5-yl)methyl)formamido)-5-hydroxypent-2-en-3-yl) 5-chloro-2-(2-chlorophenoxy)benzothioate]", "values": [{"measurement": "fold induction at 50 µM", "setting": "[3]; Table 3", "value": 96.9}, {"measurement": "fold induction at 50 µM", "setting": "[5]; AML12 cells, Table 3", "value": 235}]}, {"molecule": "C/C(=C(\\CCO)SC(=O)c1cc(Cl)ccc1Oc1ccccc1Br)N(C=O)Cc1cnc(C)nc1N", "note": "[Compound M159, (Z)—S-(2-(N-((4-amino-2-methylpyrimidin-5-yl)methyl)formamido)-5-hydroxypent-2-en-3-yl) 2-(2-bromophenoxy)-5-chlorobenzothioate]", "values": [{"measurement": "fold induction at 50 µM", "setting": "[3]; Table 3", "value": 85.5}, {"measurement": "fold induction at 50 µM", "setting": "[5]; AML12 cells, Table 3", "value": 206}]}, {"molecule": "C/C(=C(\\CCO)SC(=O)c1c(F)cccc1Oc1ccccc1Br)N(C=O)Cc1cnc(C)nc1N", "note": "[Compound M160, (Z)—S-(2-(N-((4-amino-2-methylpyrimidin-5-yl)methyl)formamido)-5-hydroxypent-2-en-3-yl) 2-(2-bromophenoxy)-6-fluorobenzothioate]", "values": [{"measurement": "fold induction at 50 µM", "setting": "[3]; Table 3", "value": 79.5}, {"measurement": "fold induction at 50 µM", "setting": "[5]; AML12 cells, Table 3", "value": 131}]}, {"molecule": "Cc1ncc(C[n+]2csc(CCO[P@](=O)(O)OP(=O)(O)O)c2C)c(N)n1", "note": "[TPP, thiamine pyrophosphate]", "values": [{"measurement": "effect on luciferase expression, riboswitch TPPm", "setting": "[1]", "value": "regulate luciferase expression"}, {"measurement": "luciferase regulation in response to ligand, riboswitch 15D10", "setting": "[5]; AML12 cells, FIG. 6B", "value": "respond very poorly"}, {"measurement": "effect on luciferase expression, riboswitch TPPz", "setting": "[2]", "value": "regulate luciferase expression"}, {"measurement": "luciferase regulation in response to ligand, riboswitch 15A5", "setting": "[6]", "value": "respond very poorly"}]}, {"molecule": "Cc1ncc(C[n+]2csc(CCCl)c2C)c(N)n1.Cl.[Cl-]", "note": "[beclotiamine hydrochloride]", "values": [{"measurement": "effect on luciferase expression, riboswitch TPPm", "setting": "[1]", "value": "weak or no effects on luciferase expression"}, {"measurement": "effect on luciferase expression, riboswitch TPPz", "setting": "[2]", "value": "weak or no effects on luciferase expression"}]}, {"molecule": "C/C(=C(\\CCOC(=O)c1ccccc1)SS/C(CCOC(=O)c1ccccc1)=C(/C)N(C=O)Cc1cnc(C)nc1N)N(C=O)Cc1cnc(C)nc1N", "note": "[bisbentiamine]", "values": [{"measurement": "effect on luciferase expression, riboswitch TPPm", "setting": "[1]", "value": "weak or no effects on luciferase expression"}, {"measurement": "effect on luciferase expression, riboswitch TPPz", "setting": "[2]", "value": "weak or no effects on luciferase expression"}]}, {"molecule": "B1", "values": [{"measurement": "fursultiamine-dependent induction compared to parent construct 14G4", "setting": "[7]", "value": "increase in fursultiamine-dependent induction"}]}, {"molecule": "B2", "values": [{"measurement": "fursultiamine-dependent induction compared to parent construct 14G4", "setting": "[7]", "value": "increase in fursultiamine-dependent induction"}]}, {"molecule": "B3", "values": [{"measurement": "fursultiamine-dependent induction compared to parent construct 14G4", "setting": "[7]", "value": "increase in fursultiamine-dependent induction"}]}, {"molecule": "B4", "values": [{"measurement": "fursultiamine-dependent induction compared to parent construct 14G4", "setting": "[7]", "value": "increase in fursultiamine-dependent induction"}]}, {"molecule": "B5", "values": [{"measurement": "fursultiamine-dependent induction compared to parent construct 14G4", "setting": "[7]", "value": "increase in fursultiamine-dependent induction"}]}, {"molecule": "B6", "values": [{"measurement": "fursultiamine-dependent induction compared to parent construct 14G4", "setting": "[7]", "value": "increase in fursultiamine-dependent induction"}]}]}
